The results in this text go back to the supplement of paper PMC10733146.

Holding throughout (test): viability relative to DMSO control (fraction); higher = less drug effect (more viable cells)
Details in all cases: 48 h

Compound in one experiment: Cc1[nH]c2ccccc2c1CCNCc1ccc(/C=C/C(=O)NO)cc1 [Panobinostat]
Summed up:
(§1)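 The cells were primary mononuclear tumour cells, either fresh or cryopreserved, isolated by Ficoll from blood or bone marrow or derived from processed lymph node. Each well of a 384-well plate received 4 × 10^4 cells onto compounds pre-plated at five concentrations, with one well per concentration. The medium was RPMI-1640 with penicillin/streptomycin, L-glutamine and human serum, and plates stood at 37 °C and 5% CO2 for 48 h. Viability is reported as CellTiter-Glo luminescence relative to the median of 16 inner DMSO wells.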

Compound in experiment [1]: CC(C)(C)OC(=O)Nc1ccc(-c2cc(C(=O)NCCCCCCC(=O)NO)no2)cc1
An outline of the steps:
as §1

Compound in the next experiment: CC(C)(C)c1cc(NC(=O)Nc2ccc(-c3cn4c(n3)sc3cc(OCCN5CCOCC5)ccc34)cc2)no1 [Quizartinib]
An outline of the steps: as §1

Compound in another experiment: O=C(NCC1(c2nc(-c3ccccc3)cs2)CCOCC1)c1cccc(-c2noc(C(F)(F)F)n2)c1 [TMP269]
An outline of the steps: as §1

As for primary MCL patient cells (S041), the viability with Panobinostat (0.00064 µM) came to 0.955; in the experiment with Panobinostat (0.0032 µM), 0.803; in the experiment with Panobinostat (0.016 µM) it was 0.218; with Panobinostat (0.08 µM), 0.174; with Panobinostat (0.4 µM), 0.171; in experiment [1] (0.024 µM) it was 1.02. The viability is 0.884 in experiment [1] (0.12 µM); 0.65 in experiment [1] (0.6 µM); 0.221 in experiment [1] (3 µM); 0.0737 in experiment [1] (15 µM); 1.07 in the experiment with Quizartinib (0.016 µM); 1.11 with Quizartinib (0.08 µM). Further, the viability was determined as 1.09 with Quizartinib (0.4 µM); 1.06 in the experiment with Quizartinib (2 µM); 0.964 with Quizartinib (10 µM); 1.02 in the experiment with TMP269 (0.024 µM); 1.08 with TMP269 (0.12 µM); 1.06 with TMP269 (0.6 µM). The viability amounted to 1.01 with TMP269 (3 µM) and 0.942 with TMP269 (15 µM).
For the test system primary MCL patient cells (S053), the viability with Panobinostat (0.00064 µM) was 0.782; with Panobinostat (0.0032 µM), 0.476; in the experiment with Panobinostat (0.016 µM), 0.117; with Panobinostat (0.08 µM), 0.0942; with Panobinostat (0.4 µM), 0.0907; in experiment [1] (0.024 µM), 0.605. In addition, the viability was 0.463 in experiment [1] (0.12 µM); 0.239 in experiment [1] (0.6 µM); 0.098 in experiment [1] (3 µM); 0.0587 in experiment [1] (15 µM); 1.13 with Quizartinib (0.016 µM); 1.13 with Quizartinib (0.08 µM). Further, the viability came to 1.19 with Quizartinib (0.4 µM); 1.32 with Quizartinib (2 µM); 1.18 with Quizartinib (10 µM); 0.816 in the experiment with TMP269 (0.024 µM); 0.82 with TMP269 (0.12 µM); 0.826 with TMP269 (0.6 µM). The viability with TMP269 (3 µM) was 0.831; with TMP269 (15 µM), 0.843.
For the test system primary MCL patient cells (S063), the viability with Panobinostat (0.00064 µM) worked out at 1.03; with Panobinostat (0.0032 µM), 0.93; with Panobinostat (0.016 µM), 0.182; with Panobinostat (0.08 µM), 0.0167; with Panobinostat (0.4 µM), 0.0196; in experiment [1] (0.024 µM), 1.05. In addition, the viability in experiment [1] (0.12 µM) was 1; in experiment [1] (0.6 µM) it was 0.859; in experiment [1] (3 µM), 0.24; in experiment [1] (15 µM), 0.0207; with Quizartinib (0.016 µM) it was 1.12; in the experiment with Quizartinib (0.08 µM), 1.17. For the same test system, the viability stood at 1.07 with Quizartinib (0.4 µM); 1.17 in the experiment with Quizartinib (2 µM); 1.13 with Quizartinib (10 µM); 0.982 with TMP269 (0.024 µM); 1.01 with TMP269 (0.12 µM); 1.1 in the experiment with TMP269 (0.6 µM). Further, the viability with TMP269 (3 µM) was 1.03; with TMP269 (15 µM), 1.
Regarding primary MCL patient cells (S068), the viability with Panobinostat (0.00064 µM) is 0.613; with Panobinostat (0.0032 µM) it was 0.284; with Panobinostat (0.016 µM), 0.13; with Panobinostat (0.08 µM), 0.105; in the experiment with Panobinostat (0.4 µM) it was 0.105; in experiment [1] (0.024 µM), 0.812. For the same test system, the viability in experiment [1] (0.12 µM) was found to be 0.533; in experiment [1] (0.6 µM) it was 0.216; in experiment [1] (3 µM), 0.115; in experiment [1] (15 µM) it was 0.0907; in the experiment with Quizartinib (0.016 µM), 1.08; with Quizartinib (0.08 µM), 1.17. For the same test system, the viability worked out at 1.23 with Quizartinib (0.4 µM); 1.39 with Quizartinib (2 µM); 1.51 in the experiment with Quizartinib (10 µM); 0.882 with TMP269 (0.024 µM); 0.943 with TMP269 (0.12 µM); 0.894 in the experiment with TMP269 (0.6 µM). The figures for the viability with TMP269 (3 µM) and in the experiment with TMP269 (15 µM) were 1.01 and 1.24, respectively.
primary T-PLL patient cells (S008): the viability amounted to 0.965 with Panobinostat (0.00064 µM); 0.985 with Panobinostat (0.0032 µM); 0.895 in the experiment with Panobinostat (0.016 µM); 0.818 in the experiment with Panobinostat (0.08 µM); 0.723 in the experiment with Panobinostat (0.4 µM); 0.97 in experiment [1] (0.024 µM). Moreover, the viability in experiment [1] (0.12 µM) was 0.973; in experiment [1] (0.6 µM), 1.01; in experiment [1] (3 µM) it was 0.848; in experiment [1] (15 µM) it was 0.704; with Quizartinib (0.016 µM), 0.99; with Quizartinib (0.08 µM), 0.953. Also, the viability was 0.986 in the experiment with Quizartinib (0.4 µM); 1.03 with Quizartinib (2 µM); 1.02 in the experiment with Quizartinib (10 µM); 1.04 with TMP269 (0.024 µM); 1.01 with TMP269 (0.12 µM); 1.01 in the experiment with TMP269 (0.6 µM). In addition, the viability with TMP269 (3 µM) was determined as 1.01; in the experiment with TMP269 (15 µM), 0.947.
